# Earlier results in paper PMC5937704 (Biochemistry, 2018).
# Experiments:
# [1] = system: bromodomain 2 (BD2) of TAF1
# [2] = system: bromodomain 1 (BD1) of TAF1
structure (smiles),measurement,setting,value
"CCOC(=O)Nc1cc(-c2ccc(C)c(NS(C)(=O)=O)c2)nn2c(C)nnc12 [BSP, Bromosporine]",affinity for BD2 of TAF1,[1],nanomolar affinity
same,affinity for BD1 of TAF1,[2],significantly weaker (micromolar) affinity
